Results taken from PubChem BioAssay (NCI).
Several values for one entry are separate records, joined by “and”; a condition that tells them apart may be missing. Equal entries are not always repeated.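 Tested at 5 concentrations; 48 h exposure; 96-well plates; endpoints linearly interpolated, else capped at highest concentration. At the GI50, growth is halved. TGI: concentration producing complete growth inhibition.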

Tests used:
Test in all cases: NCI-60 cell line screen, 48 h
[1] = test system: SK-OV-3 ovarian
[2] = test system: SK-MEL-28 melanoma
[3] = test system: NCI-H23 lung
[4] = test system: LXFL 529 NSCLC
[5] = test system: HOP-92 NSCLC
[6] = test system: LOX IMVI melanoma
[7] = test system: SF-295 CNS
[8] = test system: ACHN renal
[9] = test system: UO-31 renal
[10] = test system: SNB-75 CNS
[11] = test system: M14 melanoma
[12] = test system: SK-MEL-5 melanoma
[13] = test system: MOLT-4 leukemia
[14] = test system: OVCAR-8 ovarian
[15] = test system: SF-268 CNS
[16] = test system: HOP-62 NSCLC
[17] = test system: SW-620 colon
[18] = test system: KM12 colon
[19] = test system: DMS 114 small cell lung
[20] = test system: HT29 colon
[21] = test system: OVCAR-4 ovarian
[22] = test system: NCI-H226 lung
[23] = test system: EKVX NSCLC
[24] = test system: DLD-1 colon
[25] = test system: DMS 273 small cell lung
[26] = test system: HCT-116 colon
[27] = test system: A549 NSCLC
[28] = test system: K-562 leukemia
[29] = test system: RXF 393 renal
[30] = test system: HCC-2998 colon
[31] = test system: KM20L2 colon
[32] = test system: SN12C renal
[33] = test system: RXF-631 renal
[34] = test system: NCI-H522 lung
[35] = test system: M19-MEL melanoma
[36] = test system: CCRF-CEM leukemia
[37] = test system: OVCAR-3 ovarian
[38] = test system: MALME-3M melanoma
[39] = test system: A498 renal
[40] = test system: UACC-62 melanoma
[41] = test system: TK-10 renal
[42] = test system: UACC-257 melanoma
[43] = test system: OVCAR-5 ovarian
[44] = test system: U251 CNS
[45] = test system: XF 498 CNS
[46] = test system: SK-MEL-2 melanoma
[47] = test system: CAKI-1 renal
[48] = test system: SR leukemia
[49] = test system: SNB-78 CNS
[50] = test system: NCI-H460 lung
[51] = test system: 786-0 renal
[52] = test system: SNB-19 CNS
[53] = test system: SF-539 CNS
[54] = test system: HCT-15 colon
[55] = test system: IGROV1 ovarian
[56] = test system: HL-60(TB) leukemia
[57] = test system: RPMI-8226 leukemia
[58] = test system: COLO 205 colon

Q: How did the TGI [1] turn out when CC(C)(C)OC(=O)NC1CCC[C@H]1O (some centres not stated) was run?
A: > 100 µM

Q: What about the TGI [2] of the same compound?
A: > 100 µM

Q: And the TGI [3]?
A: > 100 µM

Q: And the TGI [4]?
A: > 100 µM

Q: What about the TGI [5] of the same compound?
A: > 100 µM

Q: And the TGI [6]?
A: > 100 µM

Q: What about the TGI [7] of the same compound?
A: > 100 µM

Q: What about the TGI [8] of the same compound?
A: > 100 µM

Q: What about the TGI [9] of the same compound?
A: > 100 µM

Q: What about the TGI [10] of the same compound?
A: > 100 µM

Q: What about the TGI [11] of the same compound?
A: > 100 µM

Q: And the TGI [12]?
A: > 100 µM

Q: What about the TGI [13] of the same compound?
A: > 100 µM

Q: What about the TGI [14] of the same compound?
A: > 100 µM

Q: And the TGI [15]?
A: > 100 µM

Q: And the TGI [16]?
A: > 100 µM

Q: And the TGI [17]?
A: > 100 µM

Q: What about the TGI [18] of the same compound?
A: > 100 µM

Q: And the TGI [19]?
A: > 100 µM

Q: And the TGI [20]?
A: > 100 µM

Q: What about the TGI [21] of the same compound?
A: > 100 µM

Q: And the TGI [22]?
A: > 100 µM

Q: What about the TGI [23] of the same compound?
A: > 100 µM

Q: What about the TGI [24] of the same compound?
A: > 100 µM

Q: What about the TGI [25] of the same compound?
A: > 100 µM

Q: What about the TGI [26] of the same compound?
A: > 100 µM

Q: And the TGI [27]?
A: > 100 µM

Q: What about the TGI [28] of the same compound?
A: > 100 µM

Q: And the TGI [29]?
A: > 100 µM

Q: What about the TGI [30] of the same compound?
A: > 100 µM

Q: And the TGI [31]?
A: > 100 µM

Q: What about the TGI [32] of the same compound?
A: > 100 µM

Q: And the TGI [33]?
A: > 100 µM

Q: What about the TGI [34] of the same compound?
A: > 100 µM

Q: What about the TGI [35] of the same compound?
A: > 100 µM

Q: And the TGI [36]?
A: > 100 µM

Q: What about the TGI [37] of the same compound?
A: > 100 µM

Q: What about the TGI [38] of the same compound?
A: > 100 µM

Q: What about the TGI [39] of the same compound?
A: > 100 µM

Q: And the TGI [40]?
A: > 100 µM

Q: What about the TGI [41] of the same compound?
A: > 100 µM

Q: And the TGI [42]?
A: > 100 µM

Q: What about the TGI [43] of the same compound?
A: > 100 µM

Q: What about the TGI [44] of the same compound?
A: > 100 µM

Q: And the TGI [45]?
A: > 100 µM

Q: And the TGI [46]?
A: > 100 µM

Q: And the TGI [47]?
A: > 100 µM

Q: What about the TGI [48] of the same compound?
A: > 100 µM

Q: What about the TGI [49] of the same compound?
A: > 100 µM

Q: What about the TGI [50] of the same compound?
A: > 100 µM

Q: And the TGI [51]?
A: > 100 µM

Q: And the TGI [52]?
A: > 100 µM

Q: And the TGI [53]?
A: > 100 µM

Q: What does the source list for COc1cc2c(c(OC)c1OC)-c1ccc(SC)c(=O)cc1[C@@H](NCc1cccc(C#N)c1)CC2?
A: GI50 [1]: < 0.0075 µM; TGI [3]: < 0.0075 µM; GI50 [4]: < 0.0075 µM; TGI [4]: > 75 µM; GI50 [5]: < 0.0075 µM; TGI [5]: > 75 µM; GI50 [6]: < 0.0075 µM; TGI [6]: 16.6 µM; GI50 [7]: < 0.0075 µM; GI50 [54]: < 0.0075 µM; GI50 [8]: 0.0134 µM; TGI [8]: > 75 µM; GI50 [9]: < 0.0075 µM; TGI [9]: > 75 µM; GI50 [55]: < 0.0075 µM; TGI [55]: > 75 µM; TGI [10]: 0.0568 µM; GI50 [11]: < 0.0075 µM; TGI [12]: 0.0641 µM; GI50 [56]: < 0.0075 µM; GI50 [13]: < 0.0075 µM; TGI [13]: 69.2 µM; GI50 [14]: < 0.0075 µM; GI50 [15]: < 0.0075 µM; GI50 [16]: < 0.0075 µM; TGI [16]: > 75 µM; GI50 [17]: < 0.0075 µM; TGI [17]: > 75 µM; GI50 [18]: < 0.0075 µM; TGI [18]: 0.0509 µM and 0.0128 µM; GI50 [19]: < 0.0075 µM; TGI [19]: 0.0347 µM and < 0.0075 µM; GI50 [20]: < 0.0075 µM; TGI [20]: 0.0348 µM and < 0.0075 µM; TGI [21]: > 75 µM; GI50 [22]: < 0.0075 µM; TGI [22]: 0.0545 µM and < 0.0075 µM; GI50 [23]: < 0.0075 µM; TGI [23]: > 75 µM; GI50 [24]: < 0.0075 µM; TGI [24]: > 75 µM; GI50 [25]: < 0.0075 µM; TGI [25]: < 0.0075 µM; GI50 [26]: < 0.0075 µM; GI50 [27]: < 0.0075 µM; TGI [27]: > 75 µM; GI50 [28]: < 0.0075 µM; TGI [28]: 18.2 µM; TGI [30]: 0.0515 µM; GI50 [31]: < 0.0075 µM; TGI [31]: 0.0302 µM and < 0.0075 µM; GI50 [57]: < 0.0075 µM; TGI [57]: 40.7 µM; GI50 [32]: < 0.0075 µM; TGI [32]: 66.1 µM; TGI [33]: 21.6 µM; GI50 [34]: < 0.0075 µM; TGI [34]: 0.0377 µM and < 0.0075 µM; GI50 [35]: < 0.0075 µM; TGI [35]: 42.4 µM; GI50 [36]: < 0.0075 µM; TGI [36]: 6.16 µM; TGI [37]: 0.0493 µM; GI50 [38]: < 0.0075 µM; TGI [38]: > 75 µM; TGI [39]: 0.0732 µM; TGI [40]: 0.0637 µM; GI50 [41]: 16.2 µM; TGI [41]: > 75 µM; GI50 [42]: 6.18 µM; TGI [42]: > 75 µM; GI50 [58]: < 0.0075 µM; TGI [58]: 0.0593 µM and < 0.0075 µM; GI50 [43]: > 75 µM; TGI [43]: > 75 µM; TGI [44]: 0.0434 µM; GI50 [45]: < 0.0075 µM; TGI [45]: < 0.0075 µM; GI50 [46]: < 0.0075 µM; TGI [46]: < 0.0075 µM; TGI [47]: > 75 µM; TGI [48]: 12.2 µM; TGI [50]: 8.97 µM; GI50 [51]: < 0.0075 µM; TGI [51]: 20.9 µM; GI50 [52]: < 0.0075 µM; TGI [52]: > 75 µM; GI50 [53]: < 0.0075 µM; TGI [53]: 0.0354 µM and < 0.0075 µM
